The results in this text go back to patent US20210308061A1, “PHARMACEUTICAL COMPOSITIONS WITH A CDC7 INHIBITOR” (TAKED PHARMACEUTICAL COMPANY LIMITED, priority 2018, published 2021).

This series in a line: Powder flowability (flow factor FFc), FT4 powder rheometer. Format: physicochemical. The note with it: Compound 1 alone. As to the method: For the simulation of the DG process, compression pressure was adjusted to produce ribbon of different porosity. The flowability and compressibility of either preblend or milled ribbon was measured to evaluate the manufacturability of each formulation on the DC and the DG processes. The peak force value of compression and the vertical projection area of tooling were used to calculate the maximum compression pressure (CP). Powder flowability (i.e., flow factor (FFc)) was measured using the FT4 powder rheometer with the characterization method of 3 kPa pre-consolidation and 10 ml filling volume (Freeman Technology, Tewkesbury UK). This method was applied because it was representative of powder flow scenarios in most pharmaceutical manufacturing processes. The true density of powder was measured using the AccuPyc 1340 pycnometer (Micrometrics, Norcross Ga. USA) to calculate porosity of the ribbon.

For `Cc1[nH]ncc1-c1cc2nc([C@@H]3CC4CCN3CC4)[nH]c(=O)c2s1` [Compound 1, 2-[(2S)-1-azabicyclo[2.2.2]oct-2-yl]-6-(3-methyl-1H-pyrazol-4-yl)thieno[3,2-d]pyrimidin-4(3H)-one], the flow factor entry is “about 2.3”.
